We go through 22 compounds from PubChem BioAssay (NCI).

“And” between values parts separate entries of the source, which are not always exact repeats. Equal entries are not always repeated.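 Tested at 5 concentrations; 48 h exposure; 96-well plates; endpoints linearly interpolated, else capped at highest concentration. GI50 marks 50% less growth. TGI is the concentration that stops growth completely.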

Test in all cases: NCI anticancer screen, dose series, 48 h
Test [1] relates to SF-268 CNS.
Test [2] has as its system UACC-257 melanoma.
For test [3], the system named is T-47D breast.
The test system of test [4] is MDA-MB-435.
In test [5] the test system is UO-31 renal.
Test [6] concerns KM12 colon.
The test system of test [7] is HL-60(TB) leukemia.
Test [8] concerns SNB-19 CNS.
The test system of test [9] is MCF7 breast.
The subject of test [10] is CAKI-1 renal.

As for `C/C=C(\C)C(=O)O[C@@H]1C(O)[C@H]2OC(COC(=O)CCC(=O)CCCCCC[C@H](CCCCC)O[C@@H]3OC(C)[C@H](OC(C)=O)C(O)[C@H]3O2)[C@H]1OC(=O)/C=C/c1ccccc1` (some centres not stated), the GI50 was 0.101 µM in [1]; below 0.0109 µM in test [2]; below 0.01 µM in test [3]; below 0.01 µM in test [4]; below 0.01 µM in [5]; below 0.0138 µM in [6]. Also, the GI50 is 0.127 µM in test [7], 0.156 µM in test [8] and below 0.01 µM in [9]. Further, the TGI in test [1] was 15.6 µM; in test [2], 1.04 µM; in test [3] it was 0.761 µM; in test [4], 4.68 µM; in test [5], 8.34 µM; in test [6], above 100 µM. Further, the TGI came out at 18.9 µM in [7], 15.5 µM in test [8] and 17.3 µM in test [9].

On to `COc1c2ccccc2c(O)c2c(=O)c(C(=O)O)cn(C)c12`, for which the GI50 in test [1], in test [2], in test [3], in [4], in test [5] and in test [6] was above 100 µM in each case. Besides, the GI50 in test [8] and in [9] was above 100 µM throughout. For the same compound, the TGI in [1], in test [2], in [3], in test [4], in test [5] and in test [6] was above 100 µM in each case. The TGI in test [8] and in test [9] was above 100 µM in each case.

Turning to `COc1cc2c3c(n(CCCN4CCN(C)CC4)c(=O)c2cc1OC)-c1cc2c(cc1C3=O)OCO2`, the GI50 in test [1] was 11.9 µM; in test [10], 10.3 µM; in test [2], above 100 µM; in test [4], above 100 µM; in [5], 20.6 µM; in test [6], 12.8 µM. The GI50 in test [7] is 19.5 µM; in test [8] it was above 100 µM; in test [9], 8.82 µM. In addition, the TGI in test [1] is 41.8 µM; in [10] it was 23.7 µM; in [2] it was above 100 µM; in [4] it was above 100 µM; in test [5], 62.8 µM; in test [6] it was 29 µM. The TGI in [7] was 57.6 µM; in test [8] it was above 100 µM; in test [9], 64.8 µM.

Turning to `Cc1ccc(NC(=O)CC(=O)n2nc(-c3ccccc3)c(N=Nc3ccc(Cl)cc3)c2-c2ccccc2)cc1`, the TGI in test [1] was above 100 µM; in test [10] it was above 100 µM; in [2] it was above 100 µM; in test [5], above 100 µM; in test [6], above 100 µM; in [7] it was 17.7 µM. This compound also yielded a TGI in test [8] above 100 µM.

In the case of `CC(=O)OCC1OC(OC2CC3C(C)(C)C(OC(C)=O)CC[C@]3(C)C3CCC45CC4(CC[C@H]5C(C)CC(O)C4OC4(C)C)[C@]23C)C(O)C(O)C1O` (some centres not stated), the GI50 was 3.67 µM in test [1]; 15.6 µM in test [10]; 4.1 µM in test [2]; 1.56 µM in test [6]; 0.623 µM in test [7]; 4.97 µM in test [8]. The TGI in test [1] is 9.14 µM and 14.5 µM; in test [10], 12.2 µM and 29.9 µM; in [2] it was 7.28 µM and 14.7 µM; in test [5], 11.1 µM and 14.4 µM; in [6], 3.82 µM and 3.15 µM; in test [7], 2.09 µM and 3.03 µM. The TGI in test [8] is 12.4 µM and 17.6 µM.

Consider `O=C(O)c1cc2ccccc2c(N=Nc2c([N+](=O)[O-])cc([N+](=O)[O-])cc2S(=O)(=O)O)c1O`, for which the TGI in [1], in test [10], in test [2], in test [4], in [5] and in test [6] was above 100 µM in each case. In test [8], this compound displayed a TGI above 100 µM.

Turning to `CCCCCCCCCCCCCC/C(C(=O)OC)=C(/O)C(=O)OCC`, the TGI in test [1] is 64.3 µM; in test [10], above 100 µM; in [2] it was above 100 µM; in test [5], 53.5 µM; in test [6], 59.8 µM; in test [7] it was above 100 µM. The TGI in test [8] was above 100 µM.

Turning to `CCc1cccc(C(C)C)c1NC(=O)C(=O)C(C(=O)C(=O)OC)c1nc2ccccc2[nH]c1=O` (configuration not stated), the TGI in [1], in test [10], in test [2], in [5], in test [6] and in [7] was above 100 µM throughout. Moreover, the TGI in test [8] is above 100 µM.

Consider `CCC(=O)OC1CCn2c1nc1c2C(=O)C(C)=C(N2CC2)C1=O` (configuration not stated), for which the GI50 in test [1] was 0.0309 µM; in test [10] it was 0.233 µM; in [2], 0.0261 µM; in test [6], 0.0242 µM; in [7] it was 0.169 µM; in test [8], 0.0441 µM. Besides, the TGI in test [1] is 1.22 µM and 0.254 µM; in [10], 1.01 µM and 0.511 µM; in [2], 0.0629 µM and 0.152 µM; in [4], 0.0922 µM; in test [5], 0.136 µM; in [6] it was 0.159 µM and 0.363 µM. For the same compound, the TGI in [7] was 0.432 µM and 2.63 µM; in test [8], 1.16 µM and 0.697 µM; in test [9] it was 0.0569 µM.

As for `O=C(CC/C(C/C(=N/O)c1ccc(F)cc1)=N/O)N(Cc1ccccc1)Cc1ccccc1`, the TGI in test [1], in test [10], in test [2], in test [5], in test [6] and in test [7] was above 100 µM each time. In [8], the TGI is above 100 µM.

As for `N#C/C(=C/C=C(\Cl)c1ccc(Cl)cc1)C(N)=O`, the GI50 in test [1] is 3.46 µM; in test [10], 1.29 µM; in test [2] it was 6.17 µM; in test [3], 3.26 µM; in test [4], 1.93 µM; in test [6], 2.1 µM. Besides, the values for the GI50 in test [8] and in [9] were 8.13 µM and 4.91 µM, respectively. Moreover, the TGI in [1] is 13.6 µM; in test [10], 2.99 µM; in test [2], 11.4 µM; in [3] it was 26.4 µM; in test [4], 4.12 µM; in [5], above 46.8 µM. Besides, the TGI is 4.69 µM in test [6], 22.7 µM in [8] and above 100 µM in test [9].

As to `C=C(CN(CC(=C)C(=O)c1ccccc1)C(C)(C)C)C(=O)c1ccccc1`, the TGI is 17 µM in test [1]; 14.5 µM in [10]; 32.6 µM in [2]; 24.3 µM in [5]; 17.6 µM in test [6]; 9.7 µM in test [7]. Also, in test [8], the TGI is above 59.9 µM.

Turning to `FC(F)(F)c1ccc(C=NC23CC4CC(CC(C4)C2)C3)cc1`, the TGI in [1], in test [10], in test [2], in test [5], in test [6] and in test [7] was above 100 µM in each case. Besides, in [8], the TGI was above 100 µM.

As for `N#Cc1c[nH]n2ccnc12`, the TGI in test [1], in test [10], in test [2], in test [3], in [5] and in test [6] was above 100 µM throughout. Besides, the TGI in test [7], in test [8] and in [9] was above 100 µM throughout.

As for `CC12O[C@H](c3ccccc3)[C@H](c3ccccc3)N1C(=O)C1(C(=O)OCc3ccccc3)CC12` (some centres not stated), the TGI in [1], in test [10], in test [2], in test [5], in test [6] and in [7] was above 100 µM throughout. The compound further came in with a TGI in [8] above 100 µM.

In the case of `COc1ccc(/C=C(/C(=O)N2CCCC2)c2cc(OC)c(OC)c(OC)c2)cc1N`, the GI50 is 5.44 µM in test [1]; 2.35 µM in test [10]; above 100 µM in test [2]; 3.91 µM in test [3]; 6.87 µM in test [5]; 1.55 µM in [6]. Further, the GI50 was 2.07 µM in test [7], 2.87 µM in [8] and 0.921 µM in test [9]. The TGI in test [1], in test [10], in test [2], in [3], in [5] and in test [6] was above 100 µM throughout. For the same compound, the TGI was 7.65 µM in test [7], above 100 µM in test [8] and above 100 µM in test [9].

For the compound `Cc1ccc(S(=O)(=O)Oc2ccc3c4c(c(=O)oc3c2)CCCCC4)cc1`, the GI50 in test [1] was above 100 µM; in test [10], above 100 µM; in test [3] it was 4.37 µM; in test [4] it was above 100 µM; in test [5], above 100 µM; in [6] it was 7.16 µM. In addition, the GI50 in test [8] is above 100 µM; in test [9], 9.16 µM. Further, the TGI in test [1], in test [10], in test [3], in [4], in [5] and in test [6] was above 100 µM throughout. The TGI in test [8] and in [9] was above 100 µM throughout.

For `O=C1c2ccccc2S(=O)(=O)N1CSC(=S)N1CCCC1`, the GI50 in [1] was above 100 µM; in test [10], above 100 µM; in test [2], above 100 µM; in [3], above 72.4 µM; in test [4] it was 99.7 µM; in [5], above 100 µM. For the same compound, the GI50 in test [6] was above 100 µM; in test [8] it was above 100 µM; in [9] it was above 22.9 µM. Also, the TGI in [1], in test [10], in test [2], in test [3], in test [4] and in test [5] was above 100 µM throughout. The TGI in test [6], in test [8] and in test [9] was above 100 µM each time.

Turning to `N#C/C(=C\c1ccc(Br)cc1)n1nnc2cccc(F)c21`, the GI50 in [1] was 1.73 µM; in test [10], 2.05 µM; in test [2], 1.86 µM; in [3], 1.08 µM; in [4] it was 0.295 µM; in test [5], 1.41 µM. Moreover, the GI50 in test [6] was 1.51 µM; in [8], 1.63 µM; in [9], 0.445 µM. Besides, the TGI in test [1] is 3.51 µM; in test [10], 4.99 µM; in test [2], 5.43 µM; in test [3] it was 4.44 µM; in test [4], 0.913 µM; in test [5], 2.72 µM. In addition, the TGI in [6] is 3.31 µM; in test [8], 3.35 µM; in test [9] it was 1.98 µM.

Turning to `COC(=O)c1c2c(c(C)[n+]([O-])c1C)C(=O)C=C(NCc1cccc(OC)c1)C2=O`, the GI50 is 1.26 µM in test [1]; 0.696 µM in [10]; 0.254 µM in [2]; 0.286 µM in [3]; 0.178 µM in test [4]; 1.13 µM in test [5]. Moreover, the GI50 in [7] is 0.317 µM; in [9] it was 0.258 µM. For the same compound, the TGI in test [1] stood at 4.21 µM; in test [10], 2.22 µM; in test [2], 0.786 µM; in [3], 1.62 µM; in test [4], 0.33 µM; in test [5], 2.44 µM. Also, the results for the TGI in [7] and in [9] were 1.15 µM and 0.826 µM, respectively.

On to `Cc1cc(N(CCC#N)CCC#N)ccc1/C=C(\NC(=O)/C=C/c1ccccc1)NC(=O)Nc1ccc(Cl)cc1`, for which the TGI in [1], in [10], in test [2], in test [5], in test [6] and in test [7] was above 100 µM in each case. Also, the TGI in test [8] was above 100 µM.

As to `Cc1cc(Cc2cc(C)c(NC(=O)C(=O)C3C(=O)NC(=S)NC3=O)c(C(C)C)c2)cc(C(C)C)c1NC(=O)C(=O)C1C(=O)NC(=S)NC1=O`, the TGI in test [1], in test [10], in test [2], in test [5], in test [6] and in test [7] was above 100 µM each time. The same compound returned a TGI in [8] above 100 µM.
